According to US20080004561A1, “Method for Treating Oncological, Virulent and Somatic Diseases, Method for Controlling Treatment Efficiency, Pharmaceutical Agents and Composition for Carrying Out Said Treatment” (priority 2005, published 2008):
“Also recorded” adds a separate entry of the source.

How the values were obtained:
Erlich carcinoma [1] = assay: Influence of DNase administrated twice a day on Erlich tumor growth at mice (Example 1); assay type: in vivo; settings: day 3 to 7, 7 day after transplantation
Experimental: (§1) Bovine pancreatic DNase I (Fermentas) and human recombinant DNase I (Dornase; Gentech) were used. DNase I solution for injections were prepared by dissolving of DNase matrix solution in sterile phosphate buffer directly before administration. Cyclophosphamide and Doxorubicin were dissolved according to instruction.
(§2) Blood plasma DNA of tumor-bearing mice was received according to technique described above. Highly metastatic and low metastatic stains of mice' Luice lung carcinoma and Erlich carcinoma were used. Cells were cultivated in RPMI-1640 media with adding of 10% embryonic calf serum, 1% penicillin—streptomycin in 5% carbon dioxide atmosphere. For tumor induction in mice, cells were cultivated until the monolayer, than were detached with trypsin-EDTA solution. Cells were washed trice by centrifuging in phosphate buffer and were resuspensed until their concentration have become 0.5×10^7/ml. Viability was defined by inclusion of methylene blue in hemocytometer. Suspensions that contained 95% of viable cells were used for administration to animals.
(§3) Mice of C57B1 line and white not thoroughbred mice from “Rappolovo” animal house were used. Weight of animals was 24-26 grams. Animals were contained in cages, for 6-7 mice per one cage on a standard diet without water restriction. LLC cells in dose of 5×10^5 in 100 mkl of phosphate buffer were injected in soft tissues of thigh. Erlich tumor was subcutaneously replanted on the right side by injection of 0.2 ml 10% cells' suspension in isotonic sodium chloride solution.
Influence of DNase I Administrated Twice a Day on Erlich Tumor Growth at Mice
(§4) Group 1—10 mice transplanted with Erlich carcinoma (control).
(§5) Group 2—10 mice transplanted with Erlich carcinoma. Mice were intraperitoneally injected with DNase at 1 mg/kg dose in […] of phosphate buffer twice a day starting from 3 up to 7 day after tumor transplantation.
Group 3—10 mice transplanted with Erlich carcinoma. Mice were intraperitoneally injected with DNase at 2 mg/kg dose in […] of phosphate buffer twice a day starting from 3 up to 7 day after tumor transplantation.

metastases development = settings: systemic introduction; Sugihara S. et al. (1990, 1993); cited from earlier work
tumor cells = assay: In vitro effect of DNase I on tumor cells' growth; assay type: cell-based; settings: DNase I concentration up to 100 mkg/ml
[2] = system: DNA from fresh blood serum; assay: Sensitivity of circulating blood DNA to DNase action, electrophoresis (Example 9); assay type: biochemical, volunteers; settings: DNA processed by DNase I for 3 hours at 37° C.
Experimental: DNA from fresh blood serum (mixture of blood received from 5 volunteers ) was isolated by standard phenol-chloroform method.
Sediment of nucleic acids was washed by 70% ethanol and dissolved in tris-EDTA buffer. Spectrophotometry with wave's length 260 nm (SF-46) was used for quantification of DNA. DNA was researched by electrophoresis in 0.8% […] gel with ethidium bromide staining. One part of received DNA was processed by DNase I for 3 hours at 37° C. After electrophoretic separation of processed and not processed DNA it was found out that: […]

Erlich carcinoma [3] = assay: Inhibition of Erlich tumor growth by different schemes of DNase administration (Example 2); assay type: in vivo, mice; settings: day 3 to 7, 7 day after transplantation
Experimental: as §1, §2, §3
In our experiments DNA circulating in blood plasma of patients was the therapeutic target of DNase. Prolonged presence of DNase in blood plasma at catalytically effective concentrations is essential for provision of maximal therapeutic effect.
as §4, §5
Group 3—10 mice transplanted with Erlich carcinoma. Mice were intraperitoneally injected with DNase at 0.5 mg/kg dose in […] of phosphate buffer four times a day starting from 3 up to 7 day after tumor transplantation.

blood plasma DNA = assay: Blood plasma DNA concentration after end of DNase treatment course (Example 2); assay type: in vivo; settings: Erlich carcinoma mice
Experimental: Fresh blood plasma (not more than 3-4 hours after isolation) with anticoagulant (sodium citrate) addition was centrifuged on Ficoll-PlaquePlus (Amersham-Pharmacia) step at 1500 g for 20 minutes at room temperature. Plasma (½ of all amount) was neatly isolated avoiding touching cells sediment on ficoll step and was centrifuged at 10 000 g for 30 minutes to eliminate cells and debris. Supernatant was taken away not touching sediment and up to 1% of sarcosile, up to 50 mM of tris HCl pH 7,6, up to 20 mM EDTA, up to 400 mM NaCl and equal volume of phenol—chloroform mixture 1:1 were added. Received emulsion was incubated at 65° C. for 2 hours than phenol-chloroform was separated by centrifuging at 5000 g during 20 minutes at room temperature. Deproteinization by phenol-chloroform method was identically repeated for three times after what water phase was processed by chloroform and after it by diethyl ether.
Organic solvents' separation was done by centrifuging at 5000 g during 15 minutes. Equal part of isopropanol was added to water phase and incubated during night at 0° C.
After sedimentation nucleic acids were separated by centrifuging at 10 000 g during 30 minutes. […]
DNA was isolated by method that is mentioned above. DNA amount was spectrophotometrically measured. […]

[4] = DNase 1 mg/kg intraperitoneally twice a day
[5] = DNase 2 mg/kg intraperitoneally twice a day
[6] = DNase 0.5 mg/kg intraperitoneally four times a day

Question: With DNase as the substance, how does the TGI % (Erlich carcinoma [1]; [4]) read?
Answer: 61%

Question: What about the “Tumor's volume” value (Erlich carcinoma [1]; [4]) of the same substance?
Answer: 33 +/− 6

Question: And the TGI % (Erlich carcinoma [1]; [5])?
Answer: 60%

Question: And the “Tumor's volume” value (Erlich carcinoma [1]; [5])?
Answer: 34 +/− 7

Question: What about the Metastases development (metastases development) of the same substance?
Answer: could slow metastases development

Question: What about the “Effect on tumor cells' growth in vitro” value (tumor cells) of the same substance?
Answer: does not cause direct cytotoxic effect; also recorded: not seen any suppressive effect

Question: And the “DNA band after electrophoresis” value [2]?
Answer: disappeared completely

Question: What about the “T% (tumor's growth inhibition)” value (Erlich carcinoma [3]; [6]) of the same substance?
Answer: 76%

Question: What about the “Tumor's volume” value (Erlich carcinoma [3]; [6]) of the same substance?
Answer: 23 +/− 6

Question: And the “T% (tumor's growth inhibition)” value (Erlich carcinoma [3]; [4])?
Answer: 67%

Question: What about the “Tumor's volume” value (Erlich carcinoma [3]; [4]) of the same substance?
Answer: 32 +/− 6

Question: And the “Blood plasma DNA concentration” value (blood plasma DNA; DNase 0.5 mg/kg four times a day)?
Answer: 38.5 ng/mL

Question: And the “Blood plasma DNA concentration” value (blood plasma DNA; DNase 1 mg/kg twice a day)?
Answer: 55.1 ng/mL
